Our source for the IC50, Dmax and DC50 values is US12428428B2, “Tricyclic tetrahydroisoquinoline derivative, preparation method therefor and application thereof in medicine” (JIANGSU HENGRUI MEDICINE CO., LTD., priority 2020, dated 2025).

Format in all cases: cell-based
Assay [1] deals with ERα Y537S mutant-expressing MCF7 cells. In words: Inhibition of proliferation of ERα mutant-expressing MCF7 cells. Particulars: Homo sapiens, 144 h. From the text:
The mutant estrogen receptor α (ERα) Y537S of human ERα protein was obtained by site-directed mutagenesis in a two-primer PCR manner using the cDNA of wild-type ESR1 gene (Accession No. NM000125) as a template. The sequences of the primers used in the mutation are as follows (the underlined nucleotides are the sites of mutation): Y537S: F-AAGAACGTGGTGCCCCTCTCTGACCTGCTGCTGGAGATG (SEQ ID NO: 1); R-CATCTCCAGCAGCAGGTCAGAGAGGGGCACCACGTTCTT (SEQ ID NO: 2). The cDNA of the mutant ESR1 was cloned into the lentiviral vector of interest pCDH-CMV-MCS-EF1-Puro. The lentiviral plasmid bearing the mutant ESR1 gene sequence and the lentiviral packaging plasmid were then transfected into HEK-293T cells (ATCC, CRL-3216) by using Lipofectamine 3000 Transfection Reagent (ThermoFisher Scientific, Cat #L3000075). Forty-eight hours after transfection, the virus-bearing medium supernatant was filtered and ultracentrifuged to obtain a virus precipitate, which was then resuspended in an appropriate amount of medium. The suspension was added to MCF7 cells (ATCC, HTB-22), followed by the addition of polybrene at a final concentration of 8 μg/mL. The mixture was incubated overnight. Two days after transfection, 1 μg/mL puromycin was added to the cell culture liquid for resistance screening. About two weeks later, an MCF7 cell line capable of stably expressing the ERαY537S mutant was obtained.
The ERα mutant-expressing MCF7 cells were cultured in an MEM (GE Healthcare, SH30024.01) complete medium containing 10% fetal bovine serum. On the first day of the experiment, the cells were seeded into a 96-well plate with complete medium at a density of 3,000 cells/well to form 100 μL of cell suspension per well. The plate was incubated overnight in a cell incubator at 37° C. with 5% CO2. The following day the medium was removed, and 135 μL of an MEM incomplete medium containing 2% fetal bovine serum, and 15 μL of a test compound prepared at different concentrations with the incomplete medium were added to each well. The final concentrations of the compound were 9 concentration points obtained by 4-fold serial dilution from 100 nM. A blank control containing 0.5% DMSO was set. The plate was incubated in a cell incubator at 37° C. with 5% CO2 for 144 h. On day 8, the 96-well cell culture plate was taken out. 150 μL of CellTiter-Glo® Luminescent Cell Viability Assay (Promega, G7573) was added to each well. The plate was let stand at room temperature for 10 min, and the luminescence signal values was read using a multilabel microplate reader (PerkinElmer, VICTOR 3). The IC50 values for the inhibitory activity of the compounds were calculated according to the compound concentrations and the luminescence signal values and are shown in Table 3.

The next assay concerns MCF-7 cells. In words: Inhibition of proliferation of MCF-7 cells (ATP method, Cell Titer-Glo). The following applies: Homo sapiens, MCF7; MCF-7 cells, 72 h. As to the method: This experiment was intended to test the inhibitory effects of the compounds disclosed herein on the proliferation of MCF-7 Cells by using the ATP method, and to evaluate the in vitro activity of the compounds according to the IC50 values.
MCF-7 cells (TCHu74, National Collection of Authenticated Cell Cultures) were seeded into a 96-well plate with an MEM (hyclone, SH30024.01B) medium containing 10% FBS (Gibco, 10099-141), 1% sodium pyruvate (sigma, 58636) and 1% non-essential amino acid (sigma, M7145) at a density of 4,000 cells/well and cultured at 37° C. with 5% CO2. 20 mM stock solutions of the compounds are prepared, serially diluted with 100% DMSO to a final concentration of 1000×, and then diluted 20-fold with a medium containing 2% FBS. After the cells were cultured for 24 h, the medium was removed. 90 μL of the medium containing 2% FBS and 10 μL of a drug were added to each well, and 10 μL of DMSO was added to the control group. The mixtures were well mixed by gentle shaking. The blank group contained only 100 μL of the medium containing 2% FBS. The cells were cultured in an incubator at 37° C. with 5% CO2 for 72 h, and then 50 μL of mixed Cell Titer-Glo (Promega, G7571) was added to each well. The mixtures were well mixed by shaking and let stand at room temperature for 10 min, and the chemiluminescence signal values were determined.
The chemiluminescence signal value was plotted against the compound concentration (in log form) using Graphpad Prism, and the IC50 values of the compounds were obtained.

A further assay deals with ERα (Homo sapiens (Human), UniProt P03372). As to the kind of experiment: Degradation of ERα in MCF-7 cells (ELISA). The following applies: for Dmax at 3 µM: MCF7, read-out: Emax degradation (%); for DC50: MCF-7 cells, 16 to 18 h, read-out: EC50 (nM), degradation of ERα. How it is done: ERα-positive breast cancer cell line MCF-7 cells were cultured in a DMEM/F12 medium (HyClone, SH30023.01) containing 10% fetal bovine serum (Corning, 35-010-CV). […] The following day the compounds were serially diluted with DMSO and further diluted with the phenol red-free DMEM/F12 medium containing 5% charcoal-stripped fetal bovine serum. 20 μL of a diluted compound was added to each well of the 48-well plate at final concentrations of 3000, 300, 30, 3, 0.3, 0.03 and 0.003 nM. The 48-well plate was placed in the incubator for 16 to 18 h. A 96-well plate was coated with the capture antibody from the human ERα/NR3A1 total protein assay kit (R&D, DYC5715-5). […] The plate was placed in an incubator at 26° C. overnight. On day 3, the antibody-coated 96-well plate was washed once with PBS, and 200 μL of PBS containing 1% BSA was added to each well. The plate was incubated in an incubator at 37° C. for 1.5 h to be blocked. The cell culture medium supernatant was discarded. The cells were washed once with PBS, and 60 μL of a cell lysis buffer was added to each well. […] The cells were lysed on ice for 15 min, and 300 μL of PBS containing 1 mM EDTA and 0.5% TritonX-100 was added to each well to dilute the urea to 1 M. The blocking buffer in the blocked 96-well plate was discarded, and 100 μL of diluted cell lysis buffer was added to each well. The plate was incubated in an incubator at 37° C. for 2 h and washed 5 times with PBS. A biotinylated assay antibody was diluted to 0.4 μg/mL with PBS containing 1% BSA, and then 100 μL of the assay antibody was added to each well. The plate was incubated in an incubator at 37° C. for 1 h. The plate was then washed five more times, and 100 μL of avidin-HRP diluted 200-fold with PBS containing 1% BSA was added to each well. The plate was incubated at 37° C. for 30 min. The plate was washed five more times, and 100 μL of TMB substrate was added to each well. The plate was incubated at room temperature until blue color appeared, and 100 μL of stop solution was added to each well. OD450 signal values were read using a PHERAstar multi-mode microplate reader. The IC50 values for the inhibitory activity of the compounds were calculated using Graphpad Prism software.
A general note: In an ELISA, binding on a coated surface is turned into a signal by an enzyme label.

Molecules are shown by their SMILES.

ERα, sequence (P03372 whole entry): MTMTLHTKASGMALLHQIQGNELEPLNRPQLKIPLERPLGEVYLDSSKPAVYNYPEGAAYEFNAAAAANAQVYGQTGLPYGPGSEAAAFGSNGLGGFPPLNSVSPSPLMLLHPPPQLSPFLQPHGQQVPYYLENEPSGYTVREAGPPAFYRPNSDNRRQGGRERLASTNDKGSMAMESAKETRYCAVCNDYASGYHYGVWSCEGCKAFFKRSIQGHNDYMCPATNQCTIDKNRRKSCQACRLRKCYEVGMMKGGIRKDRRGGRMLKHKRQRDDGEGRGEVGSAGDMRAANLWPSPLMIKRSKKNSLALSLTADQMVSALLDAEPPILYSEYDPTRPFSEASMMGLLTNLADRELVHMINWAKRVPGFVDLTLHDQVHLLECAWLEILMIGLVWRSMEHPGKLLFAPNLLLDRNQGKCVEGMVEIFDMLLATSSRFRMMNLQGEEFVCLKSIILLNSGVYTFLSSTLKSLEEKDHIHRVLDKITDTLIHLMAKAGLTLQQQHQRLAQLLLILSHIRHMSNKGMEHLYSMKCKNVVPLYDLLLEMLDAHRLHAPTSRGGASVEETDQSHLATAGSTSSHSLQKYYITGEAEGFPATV

Consider `C[C@@H]1Cc2cc3c(cc2[C@@H](c2ccc(NC4CN(CCCF)C4)cn2)N1CC(F)(F)CO)OCO3` [Example 14, 2,2-Difluoro-3-((5S,7R)-5-(5-((1-(3-fluoropropyl)azetidin-3-yl)amino)pyridin-2-yl)-7-methyl-7,8-dihydro-[1,3]dioxolo[4,5-g]isoquinolin-6(5H)-yl)propan-1-ol], for which the half-maximal inhibitory concentration (IC50) (commonly the point on the concentration scale where inhibition reaches its midpoint) in assay [1] amounted to 1.27 nM. Further, half-maximal inhibition in the assay with MCF-7 cells (IC50) required 0.36 nM. In addition, at ERα, the Dmax at 3 µM was 92% and the DC50 amounted to 0.5 nM.
Take `C[C@@H]1Cc2cc3c(cc2[C@@H](c2ccc(NC4CN(CCCF)C4)cc2)N1CC(F)(F)CO)OCO3` [Example 18, 2,2-Difluoro-3-((5R,7R)-5-(4-((1-(3-fluoropropyl)azetidin-3-yl)amino)phenyl)-7-methyl-7,8-dihydro-[1,3]dioxolo[4,5-g]isoquinolin-6(5H)-yl)propan-1-ol]: the IC50 in assay [1] was 0.25 nM. The compound also returned a 50% inhibitory concentration (IC50) in the assay on MCF-7 cells of 0.07 nM. Besides, on ERα, the Dmax at 3 µM amounted to 106% and the DC50 turned out to be 0.1 nM.
As to `C[C@@H]1Cc2cc3c(cc2[C@@H](c2ccc(N[C@H]4CCN(CCCF)C4)cn2)N1CC(F)(F)F)OCO3` [Example 6, N—((S)-1-(3-fluoropropyl)pyrrolidin-3-yl)-6-((5S,7R)-7-methyl-6-(2,2,2-trifluoroethyl)-5,6,7,8-tetrahydro-[1,3]dioxolo[4,5-g]isoquinolin-5-yl)pyridin-3-amine], the IC50 in assay [1] turned out to be 0.82 nM. This compound also gave an IC50 with MCF-7 cells of 0.34 nM. Moreover, at ERα, the Dmax at 3 µM amounted to 104% and the DC50 is 0.17 nM.
On the same counts, the results for `C[C@@H]1Cc2cc3c(cc2[C@@H](c2ccc(N[C@H]4CCN(CCCF)C4)cc2)N1CC(F)(F)CO)OCO3` [Example 3, 2,2-Difluoro-3-((5R,7R)-5-(4-(((S)-1-(3-fluoropropyl)pyrrolidin-3-yl)amino)phenyl)-7-methyl-7,8-dihydro-[1,3]dioxolo[4,5-g]isoquinolin-6(5H)-yl)propan-1-ol] are 0.43 nM, 0.15 nM, 129% and 0.19 nM.
In the same order, the values of `C[C@@H]1Cc2cc3c(cc2[C@@H](c2ncc(N[C@H]4CCN(CCCF)C4)cc2F)N1CC(F)(F)CO)OCO3` [Example 11, 2,2-Difluoro-3-((5S,7R)-5-(3-fluoro-5-(((S)-1-(3-fluoropropyl)pyrrolidin-3-yl)amino)pyridin-2-yl)-7-methyl-7,8-dihydro-[1,3]dioxolo[4,5-g]isoquinolin-6(5H)-yl)propan-1-ol] are 0.71 nM, 0.23 nM, 91% and 0.45 nM.
